Measurements: patent publication US6355799B1, “Substituted benzene compounds, process for their preparation, and herbicidal and defoliant compositions containing them” (ISK Americas Incorporated, priority 1997, dated 2002)

How the values were obtained:
Type in all cases: in vivo
[1] = system: redroot pigweed (Amaranthus retroflexus, AMARE); test: Pre-emerge test, greenhouse herbicide activity screening; conditions: pre-emerge, rated 14 days after application, 0 = no damage, 100 = complete death
How it was run: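 Visual ratings on a 0-100 scale (0 no damage, 100 all plants dead) were taken at 14 days after treatment. Rates of 15-1000 g ai/ha in acetone, 187 l/ha, were sprayed onto soil one day after planting (pre-emerge) or onto 2-3 leaf plants with 0.25% v/v surfactant (post-emerge).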

[2] = system: common ragweed (Ambrosia artemisizfolia L., AMBEL); test: Post-emerge test, greenhouse herbicide activity screening; conditions: phytotoxicity rating 0-100 (0 no damage, 100 complete death), 14 days after application
How it was run: (§1)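 Fourteen days after spraying, crop and weed injury was graded visually from 0, no effect, to 100, every plant dead. Test substances were dissolved in acetone and applied at 15–1000 g ai/ha with a flat-fan nozzle. Application was either pre-emergence, one day after sowing, or post-emergence at the 2–3 leaf stage.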

[3] = system: lambsquarters (Chenopodium album, CHEAL); test: as above; conditions: phytotoxicity rating 0-100 (0 no damage, 100 complete death), 14 days after application
How it was run: as §1

[4] = system: barnyardgrass (Echinochloa crus-galli, ECHCG); test: as above; conditions: phytotoxicity rating 0-100 (0 no damage, 100 complete death), 14 days after application
How it was run: as §1

[5] = system: green foxtail (Setaria viridis, SETVI); test: as above; conditions: phytotoxicity rating 0-100 (0 no damage, 100 complete death), 14 days after application
How it was run: as §1

[6] = system: large crabgrass (Digitaria sanguinalis, DIGSA); test: as above; conditions: phytotoxicity rating 0-100 (0 no damage, 100 complete death), 14 days after application
How it was run: as §1

[7] = system: velvetleaf (Abutilon theophrasti, ABUTH); test: as above; conditions: phytotoxicity rating 0-100 (0 no damage, 100 complete death), 14 days after application
How it was run: as §1

[8] = system: johnsongrass (Sorghum halepense, SORHA); test: as above; conditions: phytotoxicity rating 0-100 (0 no damage, 100 complete death), 14 days after application
How it was run: as §1

[9] = system: redroot pigweed (Amaranthus retroflexus, AMARE); test: as above; conditions: phytotoxicity rating 0-100 (0 no damage, 100 complete death), 14 days after application
How it was run: as §1

[10] = system: ivyleaf morningglory (Ipomoea hederacea, IPOHE); test: as above; conditions: phytotoxicity rating 0-100 (0 no damage, 100 complete death), 14 days after application
How it was run: as §1

[11] = system: sicklepod (Cassia obtusifolia, CASOB); test: as above; conditions: phytotoxicity rating 0-100 (0 no damage, 100 complete death), 14 days after application
How it was run: as §1

[12] = system: upland rice (Oryza sp., var. Tebonnet, RICE); test: Pre-emerge test, crop safety; conditions: pre-emerge, rated 14 days after application, 0 = no damage, 100 = complete death
How it was run: as §1

[13] = system: field corn (Zea mays L., var. Dekalb 535, CORN); test: Pre-emerge test, crop safety; conditions: pre-emerge, rated 14 days after application, 0 = no damage, 100 = complete death
How it was run: as §1

[14] = system: upland rice (Oryza sp., var. Tebonnet, RICE); test: Post-emerge test, crop safety; conditions: phytotoxicity rating 0-100 (0 no damage, 100 complete death), 14 days after application
How it was run: (§2)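 Herbicidal damage is scored 0 (none) to 100 (complete plant death) two weeks after a simulated field spray. Rates span 15–1000 g ai/ha, delivered in acetone at 187 l/ha. For post-emergence treatments, plants have 2–3 leaves and the spray carries 0.25% v/v non-ionic surfactant.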

[15] = system: field corn (Zea mays L., var. Dekalb 535, CORN); test: Post-emerge test, crop safety; conditions: phytotoxicity rating 0-100 (0 no damage, 100 complete death), 14 days after application
How it was run: as §2

[16] = system: common ragweed (Ambrosia artemisizfolia L., AMBEL); test: Pre-emerge test, greenhouse herbicide activity screening; conditions: pre-emerge, rated 14 days after application, 0 = no damage, 100 = complete death
How it was run: as §2

[17] = system: lambsquarters (Chenopodium album, CHEAL); test: as above; conditions: pre-emerge, rated 14 days after application, 0 = no damage, 100 = complete death
How it was run: as §2

[18] = system: barnyardgrass (Echinochloa crus-galli, ECHCG); test: as above; conditions: pre-emerge, rated 14 days after application, 0 = no damage, 100 = complete death
How it was run: as §2

[19] = system: green foxtail (Setaria viridis, SETVI); test: as above; conditions: pre-emerge, rated 14 days after application, 0 = no damage, 100 = complete death
How it was run: as §2

[20] = system: large crabgrass (Digitaria sanguinalis, DIGSA); test: as above; conditions: pre-emerge, rated 14 days after application, 0 = no damage, 100 = complete death
How it was run: as §2

[21] = system: velvetleaf (Abutilon theophrasti, ABUTH); test: as above; conditions: pre-emerge, rated 14 days after application, 0 = no damage, 100 = complete death
How it was run: as §2

[22] = system: johnsongrass (Sorghum halepense, SORHA); test: as above; conditions: pre-emerge, rated 14 days after application, 0 = no damage, 100 = complete death
How it was run: as §2

[23] = system: ivyleaf morningglory (Ipomoea hederacea, IPOHE); test: as above; conditions: pre-emerge, rated 14 days after application, 0 = no damage, 100 = complete death
How it was run: as §2

[24] = system: sicklepod (Cassia obtusifolia, CASOB); test: as above; conditions: pre-emerge, rated 14 days after application, 0 = no damage, 100 = complete death
How it was run: as §2

COC(=O)C(=O)Nc1c(OC)c(Cl)cc(F)c1-n1c(=O)cc(C(F)(F)F)n(C)c1=O [2-15]
60: Post-emerge Herbicidal Activity CHEAL ([3]; 250 g ai/ha) | Pre-emerge Herbicidal Activity CHEAL (phytotoxicity rating, scale 0-100) ([17]; 63 g ai/ha)
80: Pre-emerge Herbicidal Activity AMARE (phytotoxicity rating, scale 0-100) ([1]; 250 g ai/ha)
0: Pre-emerge Herbicidal Activity AMARE (phytotoxicity rating, scale 0-100) ([1]; 63 g ai/ha) | Post-emerge Herbicidal Activity ECHCG ([4]; 63 g ai/ha) | Post-emerge Herbicidal Activity ECHCG ([4]; 250 g ai/ha) | Post-emerge Herbicidal Activity SETVI ([5]; 63 g ai/ha) | Post-emerge Herbicidal Activity SETVI ([5]; 250 g ai/ha) | Post-emerge Herbicidal Activity DIGSA ([6]; 63 g ai/ha) | Post-emerge Herbicidal Activity DIGSA ([6]; 250 g ai/ha) | Post-emerge Herbicidal Activity SORHA ([8]; 63 g ai/ha) | Post-emerge Herbicidal Activity SORHA ([8]; 250 g ai/ha) | Post-emerge Herbicidal Activity AMARE ([9]; 63 g ai/ha) | Pre-emerge crop damage RICE (phytotoxicity rating, scale 0-100) ([12]; 250 g ai/ha) | Pre-emerge crop damage CORN (phytotoxicity rating, scale 0-100) ([13]; 63 g ai/ha) | Pre-emerge crop damage CORN (phytotoxicity rating, scale 0-100) ([13]; 250 g ai/ha) | Post-emerge Herbicidal Activity RICE (crop damage) ([14]; 63 g ai/ha) | Post-emerge Herbicidal Activity RICE (crop damage) ([14]; 250 g ai/ha) | Post-emerge Herbicidal Activity CORN (crop damage) ([15]; 63 g ai/ha) | Post-emerge Herbicidal Activity CORN (crop damage) ([15]; 250 g ai/ha) | Pre-emerge Herbicidal Activity AMBEL (phytotoxicity rating, scale 0-100) ([16]; 63 g ai/ha) | Pre-emerge Herbicidal Activity AMBEL (phytotoxicity rating, scale 0-100) ([16]; 250 g ai/ha) | Pre-emerge Herbicidal Activity ECHCG (phytotoxicity rating, scale 0-100) ([18]; 63 g ai/ha) | Pre-emerge Herbicidal Activity ECHCG (phytotoxicity rating, scale 0-100) ([18]; 250 g ai/ha) | Pre-emerge Herbicidal Activity SETVI (phytotoxicity rating, scale 0-100) ([19]; 63 g ai/ha) | Pre-emerge Herbicidal Activity SETVI (phytotoxicity rating, scale 0-100) ([19]; 250 g ai/ha) | Pre-emerge Herbicidal Activity DIGSA (phytotoxicity rating, scale 0-100) ([20]; 63 g ai/ha) | Pre-emerge Herbicidal Activity DIGSA (phytotoxicity rating, scale 0-100) ([20]; 250 g ai/ha) | Pre-emerge Herbicidal Activity SORHA (phytotoxicity rating, scale 0-100) ([22]; 63 g ai/ha) | Pre-emerge Herbicidal Activity SORHA (phytotoxicity rating, scale 0-100) ([22]; 250 g ai/ha) | Pre-emerge Herbicidal Activity CASOB (phytotoxicity rating, scale 0-100) ([24]; 63 g ai/ha) | Pre-emerge Herbicidal Activity CASOB (phytotoxicity rating, scale 0-100) ([24]; 250 g ai/ha)
30: Pre-emerge Herbicidal Activity IPOHE (phytotoxicity rating, scale 0-100) ([23]; 250 g ai/ha)
10: Post-emerge Herbicidal Activity AMBEL ([2]; 63 g ai/ha) | Post-emerge Herbicidal Activity CASOB ([11]; 63 g ai/ha) | Post-emerge Herbicidal Activity CASOB ([11]; 250 g ai/ha) | Pre-emerge crop damage RICE (phytotoxicity rating, scale 0-100) ([12]; 63 g ai/ha)
90: Post-emerge Herbicidal Activity ABUTH ([7]; 250 g ai/ha) | Post-emerge Herbicidal Activity IPOHE ([10]; 250 g ai/ha) | Pre-emerge Herbicidal Activity ABUTH (phytotoxicity rating, scale 0-100) ([21]; 250 g ai/ha)
70: Post-emerge Herbicidal Activity ABUTH ([7]; 63 g ai/ha)
20: Post-emerge Herbicidal Activity AMARE ([9]; 250 g ai/ha) | Pre-emerge Herbicidal Activity ABUTH (phytotoxicity rating, scale 0-100) ([21]; 63 g ai/ha) | Pre-emerge Herbicidal Activity IPOHE (phytotoxicity rating, scale 0-100) ([23]; 63 g ai/ha)
40: Post-emerge Herbicidal Activity AMBEL ([2]; 250 g ai/ha) | Post-emerge Herbicidal Activity CHEAL ([3]; 63 g ai/ha) | Post-emerge Herbicidal Activity IPOHE ([10]; 63 g ai/ha) | Pre-emerge Herbicidal Activity CHEAL (phytotoxicity rating, scale 0-100) ([17]; 250 g ai/ha)
